{"source": "the NIST ThermoML archive (doi:10.1021/je700276z)", "assay": "Solid-liquid equilibrium temperature", "conditions": "Crystal", "note": "Numbers after ± are expanded uncertainties."}
{"smiles": "c1ccccc1", "note": "[benzene]", "values": [{"measurement": "Solid-liquid equilibrium temperature", "setting": "100000 kPa", "result": "306.44 ± 1.6", "unit": "K"}, {"measurement": "Solid-liquid equilibrium temperature", "setting": "200000 kPa", "result": "329.93 ± 1.8", "unit": "K"}, {"measurement": "Solid-liquid equilibrium temperature", "setting": "300000 kPa", "result": "351.25 ± 2", "unit": "K"}, {"measurement": "Solid-liquid equilibrium temperature", "setting": "400000 kPa", "result": "370.85 ± 2.2", "unit": "K"}, {"measurement": "Solid-liquid equilibrium temperature", "setting": "500000 kPa", "result": "389.07 ± 2.3", "unit": "K"}, {"measurement": "Solid-liquid equilibrium temperature", "setting": "600000 kPa", "result": "406.15 ± 2.5", "unit": "K"}, {"measurement": "Solid-liquid equilibrium temperature", "setting": "700000 kPa", "result": "422.25 ± 2.6", "unit": "K"}, {"measurement": "Solid-liquid equilibrium temperature", "setting": "800000 kPa", "result": "437.52 ± 2.8", "unit": "K"}, {"measurement": "Solid-liquid equilibrium temperature", "setting": "900000 kPa", "result": "452.06 ± 2.9", "unit": "K"}, {"measurement": "Solid-liquid equilibrium temperature", "setting": "1000000 kPa", "result": "465.96 ± 3.1", "unit": "K"}, {"measurement": "Solid-liquid equilibrium temperature", "setting": "1500000 kPa", "result": "538.73 ± 10", "unit": "K"}, {"measurement": "Solid-liquid equilibrium temperature", "setting": "2000000 kPa", "result": "584.85 ± 10", "unit": "K"}, {"measurement": "Solid-liquid equilibrium temperature", "setting": "2500000 kPa", "result": "625.73 ± 10", "unit": "K"}, {"measurement": "Solid-liquid equilibrium temperature", "setting": "3000000 kPa", "result": "663.67 ± 10", "unit": "K"}]}
{"smiles": "Brc1ccccc1", "note": "[bromobenzene]", "values": [{"measurement": "Solid-liquid equilibrium temperature", "setting": "100000 kPa", "result": "259.05 ± 1.3", "unit": "K"}, {"measurement": "Solid-liquid equilibrium temperature", "setting": "200000 kPa", "result": "276.45 ± 1.5", "unit": "K"}, {"measurement": "Solid-liquid equilibrium temperature", "setting": "300000 kPa", "result": "292.45 ± 1.7", "unit": "K"}, {"measurement": "Solid-liquid equilibrium temperature", "setting": "400000 kPa", "result": "310.05 ± 1.8", "unit": "K"}, {"measurement": "Solid-liquid equilibrium temperature", "setting": "500000 kPa", "result": "322.55 ± 1.9", "unit": "K"}, {"measurement": "Solid-liquid equilibrium temperature", "setting": "600000 kPa", "result": "336.15 ± 2", "unit": "K"}, {"measurement": "Solid-liquid equilibrium temperature", "setting": "700000 kPa", "result": "349.25 ± 2.2", "unit": "K"}, {"measurement": "Solid-liquid equilibrium temperature", "setting": "800000 kPa", "result": "361.85 ± 2.3", "unit": "K"}, {"measurement": "Solid-liquid equilibrium temperature", "setting": "900000 kPa", "result": "374.75 ± 2.4", "unit": "K"}, {"measurement": "Solid-liquid equilibrium temperature", "setting": "1000000 kPa", "result": "382.85 ± 10", "unit": "K"}, {"measurement": "Solid-liquid equilibrium temperature", "setting": "1500000 kPa", "result": "430.05 ± 10", "unit": "K"}, {"measurement": "Solid-liquid equilibrium temperature", "setting": "2000000 kPa", "result": "473.67 ± 10", "unit": "K"}, {"measurement": "Solid-liquid equilibrium temperature", "setting": "2500000 kPa", "result": "514.22 ± 10", "unit": "K"}, {"measurement": "Solid-liquid equilibrium temperature", "setting": "3000000 kPa", "result": "553.94 ± 10", "unit": "K"}, {"measurement": "Solid-liquid equilibrium temperature", "setting": "3500000 kPa", "result": "587.21 ± 10", "unit": "K"}]}
{"smiles": "Clc1ccccc1", "note": "[chlorobenzene]", "values": [{"measurement": "Solid-liquid equilibrium temperature", "setting": "100000 kPa", "result": "246.4 ± 1.2", "unit": "K"}, {"measurement": "Solid-liquid equilibrium temperature", "setting": "200000 kPa", "result": "263.03 ± 1.4", "unit": "K"}, {"measurement": "Solid-liquid equilibrium temperature", "setting": "300000 kPa", "result": "273.46 ± 1.5", "unit": "K"}, {"measurement": "Solid-liquid equilibrium temperature", "setting": "400000 kPa", "result": "288.44 ± 1.7", "unit": "K"}, {"measurement": "Solid-liquid equilibrium temperature", "setting": "500000 kPa", "result": "301.03 ± 1.8", "unit": "K"}, {"measurement": "Solid-liquid equilibrium temperature", "setting": "600000 kPa", "result": "315.62 ± 1.9", "unit": "K"}, {"measurement": "Solid-liquid equilibrium temperature", "setting": "700000 kPa", "result": "325.56 ± 2", "unit": "K"}, {"measurement": "Solid-liquid equilibrium temperature", "setting": "800000 kPa", "result": "336.87 ± 2.1", "unit": "K"}, {"measurement": "Solid-liquid equilibrium temperature", "setting": "900000 kPa", "result": "348.81 ± 2.2", "unit": "K"}, {"measurement": "Solid-liquid equilibrium temperature", "setting": "1000000 kPa", "result": "354.76 ± 10", "unit": "K"}, {"measurement": "Solid-liquid equilibrium temperature", "setting": "1500000 kPa", "result": "403.44 ± 10", "unit": "K"}, {"measurement": "Solid-liquid equilibrium temperature", "setting": "2000000 kPa", "result": "440.81 ± 10", "unit": "K"}, {"measurement": "Solid-liquid equilibrium temperature", "setting": "2500000 kPa", "result": "473.28 ± 10", "unit": "K"}, {"measurement": "Solid-liquid equilibrium temperature", "setting": "3000000 kPa", "result": "503.63 ± 10", "unit": "K"}, {"measurement": "Solid-liquid equilibrium temperature", "setting": "3500000 kPa", "result": "530.87 ± 10", "unit": "K"}]}
{"smiles": "O=[N+]([O-])c1ccccc1", "note": "[nitrobenzene]", "values": [{"measurement": "Solid-liquid equilibrium temperature", "setting": "100000 kPa", "result": "299.74 ± 1.5", "unit": "K"}, {"measurement": "Solid-liquid equilibrium temperature", "setting": "200000 kPa", "result": "320.77 ± 1.7", "unit": "K"}, {"measurement": "Solid-liquid equilibrium temperature", "setting": "300000 kPa", "result": "340.02 ± 1.9", "unit": "K"}, {"measurement": "Solid-liquid equilibrium temperature", "setting": "400000 kPa", "result": "360.41 ± 2.1", "unit": "K"}, {"measurement": "Solid-liquid equilibrium temperature", "setting": "500000 kPa", "result": "378.61 ± 2.3", "unit": "K"}, {"measurement": "Solid-liquid equilibrium temperature", "setting": "600000 kPa", "result": "395.9 ± 2.4", "unit": "K"}, {"measurement": "Solid-liquid equilibrium temperature", "setting": "700000 kPa", "result": "412.3 ± 2.6", "unit": "K"}, {"measurement": "Solid-liquid equilibrium temperature", "setting": "800000 kPa", "result": "427.24 ± 2.7", "unit": "K"}, {"measurement": "Solid-liquid equilibrium temperature", "setting": "900000 kPa", "result": "442.98 ± 2.9", "unit": "K"}, {"measurement": "Solid-liquid equilibrium temperature", "setting": "1000000 kPa", "result": "462.61 ± 10", "unit": "K"}, {"measurement": "Solid-liquid equilibrium temperature", "setting": "1500000 kPa", "result": "516.38 ± 10", "unit": "K"}, {"measurement": "Solid-liquid equilibrium temperature", "setting": "2000000 kPa", "result": "565.62 ± 10", "unit": "K"}, {"measurement": "Solid-liquid equilibrium temperature", "setting": "2500000 kPa", "result": "595.88 ± 10", "unit": "K"}, {"measurement": "Solid-liquid equilibrium temperature", "setting": "3000000 kPa", "result": "614.38 ± 10", "unit": "K"}]}
